The values below come from patent US10723741B1, “DNA polymerase IIIC inhibitors and use thereof” (Acurx Pharmaceuticals, LLC, priority 2018, dated 2020).

Values after ≈ are worked out from the molar mass of the structure shown. Where only a bound is given, the exact number is not on record here.

Format in all cases: cell-based
Test [1] relates to Streptococcus pneumoniae ATCC 49619. The test can be described thus: Broth microdilution MIC, S. pneumoniae ATCC 49619. The note with it: ATCC49619, broth microdilution, 37° C., 20 hours, read-out: MIC S. pneumoniae ATCC 49619. The essentials:
(§1)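 Two-fold dilutions from 64 to 0.0625 μg/ml final, 1% DMSO, were inoculated at ~5.0×10^5 cfu/ml in the strain's test medium and kept 20 h at 37 °C in ambient atmosphere. Colonies were grown on MHA, with S. pneumoniae on blood agar under 5% CO2.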
A general note: Dilution methods test growth across graded concentrations, often in twofold steps.

For test [2], the system named is Enterococcus faecium ATCC 700221 (VRE). The test is described as follows: Broth microdilution MIC, E. faecium ATCC 700221 (VRE). The following applies: broth microdilution, 37° C., 20 hours; for MIC: Enterococcus faecium, read-out: MIC E. faecium ATCC 700221 (VRE). Also on record: MIC E. faecium ATCC 700221 (VRE): unit: ug/mL. In a few lines:
as §1

For test [3], the system named is Escherichia coli ATCC 25922. The test can be described thus: Broth microdilution MIC, E. coli ATCC 25922 (MHIIB w & w/o 4 mM EDTA). The following applies: broth microdilution, 37° C., 20 hours; for MIC: Escherichia coli, ATCC25922, without EDTA, read-out: MIC E. coli ATCC 25922; for MIC E. coli ATCC 25922 + 4 mM EDTA: with 4 mM EDTA. The essentials: as §1
Test [4] has as its system Enterococcus faecalis ATCC 29212. The test is described as follows: Broth microdilution MIC, E. faecalis ATCC 29212. The note with it: ATCC29212, broth microdilution, 37° C., 20 hours, read-out: MIC E. faecalis ATCC 29212. In a few lines: as §1
Test [5] deals with Staphylococcus aureus ATCC 29213 (MSSA). The test is described as follows: Broth microdilution MIC, S. aureus ATCC 29213 (MSSA). The note with it: broth microdilution, 37° C., 20 hours, read-out: MIC S. aureus ATCC 29213 (MSSA). The essentials: as §1
The test system of test [6] is Bacillus subtilis ATCC 6633. The test can be described thus: Broth microdilution MIC, B. subtilis ATCC 6633. The note with it: ATCC6633, broth microdilution, 37° C., 20 hours, read-out: MIC B. subtilis ATCC 6633. The essentials:
as §1

Test [7] deals with Staphylococcus aureus NRS384 (MRSA). The test can be described thus: Broth microdilution MIC, S. aureus NRS384 (MRSA). The following applies: Staphylococcus aureus; broth microdilution, 37° C., 20 hours; read-out: MIC NRS 384 (MRSA). In a few lines: as §1

Take `O=c1[nH]c(NCc2ccc(Cl)c(Cl)c2)nc2c(Cl)n[nH]c12` [Compound 55, 3-Chloro-5-[(3,4-dichlorophenyl)methylamino]-1,6-dihydropyrazolo[4,3-d]pyrimidin-7-one]: the minimum inhibitory concentration (MIC) was 8 µg/mL (≈ 23.2 µM) in test [1]; 4 µg/mL (≈ 11.6 µM) in test [2]; over 64 µg/mL in test [3]; 8 µg/mL (≈ 23.2 µM) in test [4]; 4 µg/mL (≈ 11.6 µM) in test [5]; 2 µg/mL (≈ 5.8 µM) in test [6]. Also, the MIC in test [7] turned out to be 4 µg/mL (≈ 11.6 µM). The “MIC E. coli ATCC 25922 + 4 mM EDTA” value in test [3] worked out at 64 µg/mL.

With `Cl.O=c1[nH]c(NCc2ccc(Cl)c(Cl)c2)nc2cnn(CCN3CCOCC3)c12` [Compound 57, 5-((3,4-dichlorobenzyl)amino)-1-(2-morpholinoethyl)-1H-pyrazolo[4,3-d]pyrimidin-7(6H)-one hydrochloride], the MIC was 2 µg/mL in test [1]; 1 µg/mL in test [2]; over 64 µg/mL in test [3]; 4 µg/mL in test [4]; 2 µg/mL in test [5]; 1 µg/mL in test [6]. Moreover, the MIC in test [7] was found to be 2 µg/mL. Moreover, in test [3], the “MIC E. coli ATCC 25922 + 4 mM EDTA” value is over 64 µg/mL.

Turning to `CN1CCN(CCn2ncc3nc(NCc4ccc(Cl)c(Cl)c4)[nH]c(=O)c32)CC1` [Compound 58, 5-((3,4-Dichlorobenzyl)amino)-1-(2-(4-methylpiperazin-1-yl)ethyl)-1H-pyrazolo[4,3-d]pyrimidin-7(6H)-one], the MIC in test [1] is 4 µg/mL (≈ 9.17 µM); in test [2] it was 4 µg/mL (≈ 9.17 µM); in test [3] it was over 64 µg/mL; in test [4], 8 µg/mL (≈ 18.3 µM); in test [5] it was 16 µg/mL (≈ 36.7 µM); in test [6], 2 µg/mL (≈ 4.58 µM). Moreover, the MIC in test [7] worked out at 8 µg/mL (≈ 18.3 µM). Besides, the “MIC E. coli ATCC 25922 + 4 mM EDTA” value in test [3] is over 64 µg/mL.

For the compound `O=c1[nH]c(NCc2ccc(Cl)c(Cl)c2)nc2cnn(CCN3CCS(=O)(=O)CC3)c12` [Compound 59, 5-((3,4-Dichlorobenzyl)amino)-1-(2-(1,1-dioxidothiomorpholino)ethyl)-1H-pyrazolo[4,3-d]pyrimidin-7(6H)-one], the MIC was 4 µg/mL (≈ 8.49 µM) in test [1]; 2 µg/mL (≈ 4.24 µM) in test [2]; over 64 µg/mL in test [3]; 8 µg/mL (≈ 17 µM) in test [4]; 8 µg/mL (≈ 17 µM) in test [5]; 4 µg/mL (≈ 8.49 µM) in test [6]. In test [7], the MIC was found to be 8 µg/mL (≈ 17 µM). The “MIC E. coli ATCC 25922 + 4 mM EDTA” value in test [3] is over 64 µg/mL.

`CN1CCN(CCn2ncc3nc(NCc4ccc(Cl)c(Cl)c4)[nH]c(=O)c32)CC1=O` [Compound 60, 5-((3,4-Dichlorobenzyl)amino)-1-(2-(4-methyl-3-oxopiperazin-1-yl)ethyl)-1H-pyrazolo[4,3-d]pyrimidin-7(6H)-one]: the MIC in test [1] was 4 µg/mL (≈ 8.88 µM); in test [2], 2 µg/mL (≈ 4.44 µM); in test [3], over 64 µg/mL; in test [4], 8 µg/mL (≈ 17.8 µM); in test [5], 8 µg/mL (≈ 17.8 µM); in test [6], 4 µg/mL (≈ 8.88 µM). The minimal inhibitory concentration (MIC) in test [7] is 8 µg/mL (≈ 17.8 µM). The “MIC E. coli ATCC 25922 + 4 mM EDTA” value in test [3] is over 64 µg/mL.

Consider `CNCCn1ncc2nc(NCc3ccc(Cl)c(Cl)c3)[nH]c(=O)c21` [Compound 61, 5-((3,4-Dichlorobenzyl)amino)-1-(2-(methylamino)ethyl)-1H-pyrazolo[4,3-d]pyrimidin-7(6H)-one], for which the MIC in test [1] is 16 µg/mL (≈ 43.6 µM); in test [2], 16 µg/mL (≈ 43.6 µM); in test [3], over 64 µg/mL; in test [4], 32 µg/mL (≈ 87.1 µM); in test [5] it was 64 µg/mL (≈ 174 µM); in test [6], 8 µg/mL (≈ 21.8 µM). Besides, the MIC in test [7] worked out at 64 µg/mL (≈ 174 µM). Further, in test [3], the “MIC E. coli ATCC 25922 + 4 mM EDTA” value was over 64 µg/mL.

Consider `CC(C)(C)NCCn1ncc2nc(NCc3ccc(Cl)c(Cl)c3)[nH]c(=O)c21` [Compound 62, 1-[2-(tert-Butylamino)ethyl]-5-[(3,4-dichlorophenyl)methylamino]-6H-pyrazolo[4,3-d]pyrimidin-7-one], for which the MIC was 4 µg/mL (≈ 9.77 µM) in test [1]; 8 µg/mL (≈ 19.5 µM) in test [2]; over 64 µg/mL in test [3]; 8 µg/mL (≈ 19.5 µM) in test [4]; 16 µg/mL (≈ 39.1 µM) in test [5]; 4 µg/mL (≈ 9.77 µM) in test [6]. In test [7], the MIC was 16 µg/mL (≈ 39.1 µM). The “MIC E. coli ATCC 25922 + 4 mM EDTA” value in test [3] came to 32 µg/mL.

Take `NCCn1ncc2nc(NCc3ccc(Cl)c(Cl)c3)[nH]c(=O)c21` [Compound 63, 1-(2-Aminoethyl)-5-[(3,4-dichlorophenyl)methylamino]-6H-pyrazolo[4,3-d]pyrimidin-7-one]: the minimal inhibitory concentration (MIC) was 8 µg/mL (≈ 22.6 µM) in test [1]; 32 µg/mL (≈ 90.6 µM) in test [2]; over 64 µg/mL in test [3]; 32 µg/mL (≈ 90.6 µM) in test [4]; 64 µg/mL (≈ 181 µM) in test [5]; 8 µg/mL (≈ 22.6 µM) in test [6]. Moreover, the MIC in test [7] was found to be 64 µg/mL (≈ 181 µM). In addition, the “MIC E. coli ATCC 25922 + 4 mM EDTA” value in test [3] is over 64 µg/mL.

Take `CC(=O)N1CCN(CCn2ncc3nc(NCc4ccc(Cl)c(Cl)c4)[nH]c(=O)c32)CC1.Cl` [Compound 64, 1-(2-(4-Acetylpiperazin-1-yl)ethyl)-5-((3,4-dichlorobenzyl)amino)-1H-pyrazolo[4,3-d]pyrimidin-7(6H)-one hydrochloride]: the minimal inhibitory concentration (MIC) in test [1] was 4 µg/mL; in test [2], 2 µg/mL; in test [3], over 64 µg/mL; in test [4] it was 4 µg/mL; in test [5] it was 8 µg/mL; in test [6], 2 µg/mL. In test [7], the MIC turned out to be 8 µg/mL. For the same compound, in test [3], the “MIC E. coli ATCC 25922 + 4 mM EDTA” value was 64 µg/mL.

With `Cl.O=c1[nH]c(NCc2ccc(Cl)c(Cl)c2)nc2cnn(CCN3CCC(O)CC3)c12` [Compound 65, 5-((3,4-Dichlorobenzyl)amino)-1-(2-(4-hydroxypiperidin-1-yl)ethyl)-1H-pyrazolo[4,3-d]pyrimidin-7(6H)-one hydrochloride], the MIC was 4 µg/mL in test [1]; 8 µg/mL in test [2]; over 64 µg/mL in test [3]; 8 µg/mL in test [4]; 16 µg/mL in test [5]; 4 µg/mL in test [6]. For the same compound, the MIC in test [7] was found to be 16 µg/mL. The “MIC E. coli ATCC 25922 + 4 mM EDTA” value in test [3] turned out to be 64 µg/mL.

For the compound `Cl.NC(=O)C1CCN(CCn2ncc3nc(NCc4ccc(Cl)c(Cl)c4)[nH]c(=O)c32)CC1` [Compound 66, 1-(2-(5-((3,4-Dichlorobenzyl)amino)-7-oxo-6,7-dihydro-1H-pyrazolo[4,3-d]pyrimidin-1-yl)ethyl)piperidine-4-carboxamide hydrochloride hydrochloride], the MIC in test [1] is 8 µg/mL; in test [2], 16 µg/mL; in test [3], over 64 µg/mL; in test [4], 32 µg/mL; in test [5], 64 µg/mL; in test [6] it was 8 µg/mL. For the same compound, in test [7], the MIC was 32 µg/mL. In test [3], the “MIC E. coli ATCC 25922 + 4 mM EDTA” value was found to be 64 µg/mL.

Consider `CN(C)C1CCN(CCn2ncc3nc(NCc4ccc(Cl)c(Cl)c4)[nH]c(=O)c32)CC1.Cl.Cl` [Compound 67, 5-((3,4-Dichlorobenzyl)amino)-1-(2-(4-(dimethylamino)piperidin-1-yl)ethyl)-1H-pyrazolo[4,3-d]pyrimidin-7(6H)-one dihydrochloride], for which the MIC in test [1] was 8 µg/mL; in test [2], 16 µg/mL; in test [3], over 64 µg/mL; in test [4], 16 µg/mL; in test [5], 32 µg/mL; in test [6] it was 8 µg/mL. The MIC in test [7] is 32 µg/mL. Further, in test [3], the “MIC E. coli ATCC 25922 + 4 mM EDTA” value is over 64 µg/mL.

For `Cl.O=c1[nH]c(NCc2ccc(Cl)c(Cl)c2)nc2cnn(CCN3C[C@@H]4C[C@H]3CO4)c12` [Compound 68, 1-(2-((1 S,4S)-2-oxa-5-azabicyclo[2.2.1]heptan-5-yl)ethyl)-5-((3,4-dichlorobenzyl)amino)-1H-pyrazolo[4,3-d]pyrimidin-7(6H)-one hydrochloride], the MIC in test [1] is 4 µg/mL; in test [3], over 64 µg/mL; in test [4], 4 µg/mL; in test [5] it was 4 µg/mL; in test [6], 1 µg/mL; in test [7], 4 µg/mL. For the same compound, the “MIC E. faecium ATCC 700221 (VRE)” value in test [2] was 4/2. Also, the “MIC E. coli ATCC 25922 + 4 mM EDTA” value in test [3] stood at 64 µg/mL.

On to `CN1CC2CC1CN2CCn1ncc2nc(NCc3ccc(Cl)c(Cl)c3)[nH]c(=O)c21.Cl.Cl` (stereo not shown) [Compound 69, 5-((3,4-Dichlorobenzyl)amino)-1-(2-(5-methyl-2,5-diazabicyclo[2.2.1]heptan-2-yl)ethyl)-1H-pyrazolo[4,3-d]pyrimidin-7(6H)-one dihydrochloride], for which the MIC in test [1] was 8 µg/mL; in test [2], over 64 µg/mL; in test [3] it was over 64 µg/mL; in test [4], 32 µg/mL; in test [5] it was 32 µg/mL; in test [6], 4 µg/mL. For the same compound, the MIC in test [7] is 64 µg/mL. In addition, the “MIC E. coli ATCC 25922 + 4 mM EDTA” value in test [3] was over 64 µg/mL.

The MIC is the smallest concentration in the dilution series that meets the test's criterion for growth inhibition.
